Measured values published in the NIST ThermoML archive (doi:10.1007/s10765-005-8096-3).

Assay: refractive index (Na D-line) (dimensionless); xn = mol fraction of the nth substance listed
Details: 101 kPa, Liquid, Standard Abbe refractometry

Cc1cc(C)cc(C)c1 [1,3,5-trimethylbenzene] + CCCCOC(C)=O
refractive index
Details	293.15 K	298.15 K	303.15 K	308.15 K	313.15 K
x2 = 0.0516	1.49409	1.4916	1.48907	1.48654	1.48399
x2 = 0.1002	1.48903	1.4866	1.48406	1.4816	1.47894
x2 = 0.1506	1.48392	1.48139	1.47885	1.47632	1.47373
x2 = 0.2009	1.4787	1.47618	1.47366	1.47112	1.4686
x2 = 0.2516	1.47339	1.4709	1.46844	1.46589	1.46337
x2 = 0.2995	1.4684	1.46588	1.46345	1.46088	1.45835
x2 = 0.3481	1.46333	1.46081	1.45838	1.4558	1.45332
x2 = 0.3998	1.4579	1.45539	1.45292	1.45039	1.44787
x2 = 0.4499	1.45266	1.45014	1.44772	1.44513	1.44264
x2 = 0.5012	1.44725	1.44474	1.44227	1.43973	1.43728
x2 = 0.5517	1.44194	1.43941	1.43693	1.43441	1.43194
x2 = 0.599	1.43693	1.4344	1.43191	1.42937	1.42693
x2 = 0.6518	1.43134	1.42882	1.42637	1.42379	1.42135
x2 = 0.702	1.42599	1.42348	1.42096	1.41847	1.41604
x2 = 0.7495	1.42089	1.41842	1.41595	1.41342	1.41096
x2 = 0.8007	1.41541	1.41296	1.4105	1.40803	1.40553
x2 = 0.8531	1.40984	1.40738	1.40488	1.40245	1.39998
x2 = 0.8998	1.40482	1.4024	1.39997	1.39751	1.39502
x2 = 0.9494	1.39954	1.3971	1.39467	1.39225	1.38972

CC(C)(C)c1ccccc1 [(1,1-dimethylethyl)benzene] + CCCCOC(C)=O
refractive index
Details	293.15 K	298.15 K	303.15 K	308.15 K	313.15 K
x2 = 0.0517	1.48818	1.48564	1.48328	1.48061	1.47812
x2 = 0.1	1.48411	1.48154	1.47905	1.47649	1.47384
x2 = 0.1522	1.4795	1.47702	1.47452	1.47204	1.46953
x2 = 0.1995	1.47531	1.47273	1.47031	1.4677	1.46521
x2 = 0.2511	1.47077	1.46811	1.4657	1.46309	1.46062
x2 = 0.3008	1.46621	1.4636	1.4612	1.45859	1.45614
x2 = 0.3516	1.46145	1.45891	1.45652	1.45387	1.45137
x2 = 0.4061	1.45636	1.45381	1.45141	1.4488	1.44635
x2 = 0.4489	1.45221	1.44966	1.44727	1.4447	1.44226
x2 = 0.4994	1.44728	1.44477	1.44234	1.43978	1.43736
x2 = 0.5499	1.44227	1.43976	1.43736	1.43476	1.43237
x2 = 0.607	1.43649	1.434	1.43155	1.42904	1.42656
x2 = 0.6496	1.43209	1.42958	1.42717	1.42461	1.42212
x2 = 0.7006	1.42687	1.42436	1.42195	1.41938	1.41686
x2 = 0.7489	1.42175	1.41927	1.41683	1.41427	1.41174
x2 = 0.8013	1.41615	1.41367	1.41122	1.40871	1.40625
x2 = 0.8509	1.41079	1.40829	1.40593	1.40331	1.4009
x2 = 0.9005	1.40535	1.40288	1.40048	1.39799	1.39547
x2 = 0.95	1.39982	1.39742	1.3949	1.39263	1.39007
